Assay results from publication PMC7316778 (Nature Communications, 2020).
“And” between values parts separate entries of the source, which are not always exact repeats. Equal entries are not always repeated. Where two headings read alike, the source gives them in different places.

How the values were obtained:
Test in all cases: SelectScreen kinase assay
[1] = target: FGFR2 (Homo sapiens, UniProt P21802); details: for Inhibition at 1 µM (%): FGFR2, ZLYTE, ATP Km app
Experimental: (§1) Selectivity profiling assays were performed by the Invitrogen SelectScreen™ Services. […] The concentration of ATP was selected to be equal to the KM, unless indicated otherwise.

[2] = target: PDGFRB (PDGFR beta) (Homo sapiens, UniProt P09619)
Experimental: as §1

[3] = target: CLK2 (Homo sapiens, UniProt P49760); details: 1 h, 1 μM WEL028, 1 h preincubation
Experimental: as §1

[4] = target: T1, TAOK3 (JIK) (Homo sapiens, UniProt Q9H2K8); details: for Inhibition at 1 µM (%): LanthaScreen Binding
T1 sequence (Q9H2K8 1-898): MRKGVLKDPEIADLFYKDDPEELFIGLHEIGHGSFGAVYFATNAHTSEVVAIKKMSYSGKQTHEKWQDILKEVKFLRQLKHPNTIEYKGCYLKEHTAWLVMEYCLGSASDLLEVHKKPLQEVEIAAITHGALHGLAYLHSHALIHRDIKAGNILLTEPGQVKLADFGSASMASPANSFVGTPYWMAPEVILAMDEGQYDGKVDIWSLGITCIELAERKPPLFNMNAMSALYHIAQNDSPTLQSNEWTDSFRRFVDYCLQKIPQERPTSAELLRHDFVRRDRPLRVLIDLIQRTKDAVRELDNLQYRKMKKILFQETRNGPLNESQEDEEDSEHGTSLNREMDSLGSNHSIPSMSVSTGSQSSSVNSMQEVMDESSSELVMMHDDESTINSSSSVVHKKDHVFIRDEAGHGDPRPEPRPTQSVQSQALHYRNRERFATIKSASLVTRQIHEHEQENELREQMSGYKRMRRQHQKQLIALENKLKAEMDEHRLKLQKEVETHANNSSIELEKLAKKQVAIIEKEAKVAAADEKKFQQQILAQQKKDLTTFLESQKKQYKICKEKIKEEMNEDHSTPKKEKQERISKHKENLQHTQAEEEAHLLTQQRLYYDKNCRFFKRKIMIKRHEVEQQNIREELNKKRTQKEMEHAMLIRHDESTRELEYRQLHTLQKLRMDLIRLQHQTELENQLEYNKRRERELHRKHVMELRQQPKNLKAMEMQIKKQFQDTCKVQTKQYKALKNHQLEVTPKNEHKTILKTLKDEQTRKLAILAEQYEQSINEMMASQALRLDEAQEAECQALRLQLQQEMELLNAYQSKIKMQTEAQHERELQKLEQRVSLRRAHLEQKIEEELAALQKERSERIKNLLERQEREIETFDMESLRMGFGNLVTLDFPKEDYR
Experimental: as §1

[5] = target: PIP5K1C (Homo sapiens, UniProt O60331)
Experimental: as §1

[6] = target: DDR2 (Homo sapiens, UniProt Q16832)
Experimental: as §1

[7] = target: PIP4K2A (Homo sapiens, UniProt P48426); details: 1 h, 1 μM WEL028, 1 h preincubation
Experimental: as §1

[8] = target: IRAK4 (Homo sapiens, UniProt Q9NWZ3)
Experimental: as §1

[9] = target: STK23 (MSSK1) (Homo sapiens, UniProt Q9UPE1); details: for Inhibition at 1 µM (%): ZLYTE, ATP Km app
Experimental: as §1

[10] = target: CDK2/cyclin A1 (Homo sapiens, UniProt P24941)
Experimental: as §1

[11] = target: PIK3C3 (hVPS34) (Homo sapiens, UniProt Q8NEB9)
Experimental: as §1

[12] = target: T2, EPHB3 (Homo sapiens, UniProt P54753); details: for Inhibition at 1 µM (%): EPHB3, ZLYTE, ATP Km app
T2 sequence (P54753 34-998): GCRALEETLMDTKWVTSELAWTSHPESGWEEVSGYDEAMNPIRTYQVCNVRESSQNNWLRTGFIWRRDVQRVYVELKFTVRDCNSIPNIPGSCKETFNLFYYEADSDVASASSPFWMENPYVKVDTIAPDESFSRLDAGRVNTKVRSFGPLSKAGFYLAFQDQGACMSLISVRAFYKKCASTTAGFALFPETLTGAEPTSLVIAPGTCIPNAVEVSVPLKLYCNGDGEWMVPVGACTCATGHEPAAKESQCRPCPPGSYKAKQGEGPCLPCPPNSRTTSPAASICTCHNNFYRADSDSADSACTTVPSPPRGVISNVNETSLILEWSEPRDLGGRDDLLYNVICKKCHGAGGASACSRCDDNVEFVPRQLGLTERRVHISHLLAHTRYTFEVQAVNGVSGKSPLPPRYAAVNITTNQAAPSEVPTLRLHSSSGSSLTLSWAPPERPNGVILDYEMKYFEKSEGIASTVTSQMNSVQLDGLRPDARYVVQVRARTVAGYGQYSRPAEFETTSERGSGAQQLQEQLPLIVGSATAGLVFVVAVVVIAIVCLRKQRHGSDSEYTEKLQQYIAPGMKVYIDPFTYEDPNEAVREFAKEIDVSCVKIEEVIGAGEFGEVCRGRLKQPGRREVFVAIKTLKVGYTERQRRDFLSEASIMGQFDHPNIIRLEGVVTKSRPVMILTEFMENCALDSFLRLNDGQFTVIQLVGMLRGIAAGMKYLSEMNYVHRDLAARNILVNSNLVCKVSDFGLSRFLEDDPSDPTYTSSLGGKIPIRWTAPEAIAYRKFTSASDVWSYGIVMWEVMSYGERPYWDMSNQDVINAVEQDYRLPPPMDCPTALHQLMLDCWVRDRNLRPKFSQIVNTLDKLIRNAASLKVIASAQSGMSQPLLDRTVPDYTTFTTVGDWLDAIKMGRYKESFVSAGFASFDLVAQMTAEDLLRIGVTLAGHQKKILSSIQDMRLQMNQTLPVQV
Experimental: as §1

[13] = target: ROCK2 (Homo sapiens, UniProt O75116); details: 1 h, 1 μM WEL028, 1 h preincubation
Experimental: as §1

[14] = 1 h, 1 μM WEL028, 1 h preincubation

IRAK4, sequence (Q9NWZ3 whole entry): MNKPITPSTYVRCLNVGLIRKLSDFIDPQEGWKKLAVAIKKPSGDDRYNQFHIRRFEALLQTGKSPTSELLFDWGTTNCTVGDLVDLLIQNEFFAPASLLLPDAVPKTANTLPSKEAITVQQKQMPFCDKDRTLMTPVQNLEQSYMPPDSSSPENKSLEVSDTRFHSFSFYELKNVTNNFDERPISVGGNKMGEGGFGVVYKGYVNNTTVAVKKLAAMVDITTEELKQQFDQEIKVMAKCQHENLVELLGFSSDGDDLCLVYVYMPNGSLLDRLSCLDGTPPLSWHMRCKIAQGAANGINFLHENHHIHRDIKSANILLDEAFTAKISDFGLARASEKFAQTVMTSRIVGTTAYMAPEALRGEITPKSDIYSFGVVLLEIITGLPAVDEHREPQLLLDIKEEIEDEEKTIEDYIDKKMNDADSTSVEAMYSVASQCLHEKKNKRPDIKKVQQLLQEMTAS
PDGFRB (PDGFR beta), sequence (P09619 33-1106): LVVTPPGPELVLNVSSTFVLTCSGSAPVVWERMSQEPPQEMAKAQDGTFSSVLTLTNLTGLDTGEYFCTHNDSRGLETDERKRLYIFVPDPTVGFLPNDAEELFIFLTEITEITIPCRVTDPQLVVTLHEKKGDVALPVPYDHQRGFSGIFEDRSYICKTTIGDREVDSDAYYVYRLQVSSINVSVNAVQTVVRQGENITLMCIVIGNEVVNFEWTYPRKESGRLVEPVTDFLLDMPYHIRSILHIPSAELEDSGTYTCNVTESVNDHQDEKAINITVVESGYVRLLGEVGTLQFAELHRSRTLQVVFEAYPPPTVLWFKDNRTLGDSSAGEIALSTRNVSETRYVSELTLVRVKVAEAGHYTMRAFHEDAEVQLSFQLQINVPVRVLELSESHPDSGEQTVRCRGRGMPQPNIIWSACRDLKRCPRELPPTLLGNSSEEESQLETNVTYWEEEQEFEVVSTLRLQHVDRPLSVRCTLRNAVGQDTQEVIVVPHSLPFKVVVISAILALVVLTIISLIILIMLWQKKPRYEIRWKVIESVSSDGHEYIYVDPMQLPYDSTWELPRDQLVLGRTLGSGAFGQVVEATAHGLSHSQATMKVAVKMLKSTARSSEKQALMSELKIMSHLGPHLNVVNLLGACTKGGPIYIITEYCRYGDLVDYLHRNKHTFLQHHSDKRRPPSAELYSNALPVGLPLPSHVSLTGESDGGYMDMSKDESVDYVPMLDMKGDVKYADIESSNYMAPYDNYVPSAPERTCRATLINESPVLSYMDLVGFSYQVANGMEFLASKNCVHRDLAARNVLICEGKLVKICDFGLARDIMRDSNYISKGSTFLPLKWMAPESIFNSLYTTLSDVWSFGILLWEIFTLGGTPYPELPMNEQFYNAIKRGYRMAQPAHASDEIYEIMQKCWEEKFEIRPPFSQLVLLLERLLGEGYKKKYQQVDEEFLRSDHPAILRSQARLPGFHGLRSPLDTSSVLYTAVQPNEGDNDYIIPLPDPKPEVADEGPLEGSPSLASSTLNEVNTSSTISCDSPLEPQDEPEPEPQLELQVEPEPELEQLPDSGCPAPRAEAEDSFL
FGFR2, sequence (P21802 22-821): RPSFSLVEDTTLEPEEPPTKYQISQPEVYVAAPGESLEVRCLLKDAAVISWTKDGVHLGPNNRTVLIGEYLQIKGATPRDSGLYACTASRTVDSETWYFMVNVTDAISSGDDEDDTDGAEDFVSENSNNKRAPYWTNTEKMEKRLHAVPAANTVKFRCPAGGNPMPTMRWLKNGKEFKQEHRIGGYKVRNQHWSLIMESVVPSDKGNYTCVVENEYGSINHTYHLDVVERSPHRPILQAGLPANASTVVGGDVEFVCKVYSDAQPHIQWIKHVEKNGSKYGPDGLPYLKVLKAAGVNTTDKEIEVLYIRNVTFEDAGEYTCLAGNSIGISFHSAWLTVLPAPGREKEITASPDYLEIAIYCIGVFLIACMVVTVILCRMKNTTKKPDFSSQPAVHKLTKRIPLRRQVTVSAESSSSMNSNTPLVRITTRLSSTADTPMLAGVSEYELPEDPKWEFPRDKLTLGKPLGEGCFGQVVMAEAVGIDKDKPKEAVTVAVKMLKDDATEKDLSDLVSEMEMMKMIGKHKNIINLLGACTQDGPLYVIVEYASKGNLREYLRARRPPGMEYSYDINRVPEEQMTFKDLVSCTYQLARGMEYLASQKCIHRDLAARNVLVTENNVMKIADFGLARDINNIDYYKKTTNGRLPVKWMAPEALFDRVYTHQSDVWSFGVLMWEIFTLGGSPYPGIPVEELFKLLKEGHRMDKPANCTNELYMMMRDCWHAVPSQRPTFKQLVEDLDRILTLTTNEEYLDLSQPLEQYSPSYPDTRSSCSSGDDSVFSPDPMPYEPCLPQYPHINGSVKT
STK23 (MSSK1), sequence (Q9UPE1 whole entry): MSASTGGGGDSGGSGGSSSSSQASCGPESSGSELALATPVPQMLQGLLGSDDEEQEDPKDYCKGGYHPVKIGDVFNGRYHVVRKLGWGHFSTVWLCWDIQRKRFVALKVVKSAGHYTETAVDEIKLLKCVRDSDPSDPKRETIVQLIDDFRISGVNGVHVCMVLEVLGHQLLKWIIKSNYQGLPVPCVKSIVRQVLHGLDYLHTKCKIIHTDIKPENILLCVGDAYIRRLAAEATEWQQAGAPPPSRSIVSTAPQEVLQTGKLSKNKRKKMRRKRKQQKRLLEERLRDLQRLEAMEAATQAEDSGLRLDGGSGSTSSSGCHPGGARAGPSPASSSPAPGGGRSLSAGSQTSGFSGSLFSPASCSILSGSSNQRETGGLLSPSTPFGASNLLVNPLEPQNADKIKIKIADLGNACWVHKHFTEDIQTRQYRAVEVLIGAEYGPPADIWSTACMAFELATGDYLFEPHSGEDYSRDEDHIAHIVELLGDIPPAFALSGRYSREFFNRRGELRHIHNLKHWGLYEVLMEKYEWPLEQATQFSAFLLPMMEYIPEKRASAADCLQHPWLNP
PIK3C3 (hVPS34), sequence (Q8NEB9 whole entry): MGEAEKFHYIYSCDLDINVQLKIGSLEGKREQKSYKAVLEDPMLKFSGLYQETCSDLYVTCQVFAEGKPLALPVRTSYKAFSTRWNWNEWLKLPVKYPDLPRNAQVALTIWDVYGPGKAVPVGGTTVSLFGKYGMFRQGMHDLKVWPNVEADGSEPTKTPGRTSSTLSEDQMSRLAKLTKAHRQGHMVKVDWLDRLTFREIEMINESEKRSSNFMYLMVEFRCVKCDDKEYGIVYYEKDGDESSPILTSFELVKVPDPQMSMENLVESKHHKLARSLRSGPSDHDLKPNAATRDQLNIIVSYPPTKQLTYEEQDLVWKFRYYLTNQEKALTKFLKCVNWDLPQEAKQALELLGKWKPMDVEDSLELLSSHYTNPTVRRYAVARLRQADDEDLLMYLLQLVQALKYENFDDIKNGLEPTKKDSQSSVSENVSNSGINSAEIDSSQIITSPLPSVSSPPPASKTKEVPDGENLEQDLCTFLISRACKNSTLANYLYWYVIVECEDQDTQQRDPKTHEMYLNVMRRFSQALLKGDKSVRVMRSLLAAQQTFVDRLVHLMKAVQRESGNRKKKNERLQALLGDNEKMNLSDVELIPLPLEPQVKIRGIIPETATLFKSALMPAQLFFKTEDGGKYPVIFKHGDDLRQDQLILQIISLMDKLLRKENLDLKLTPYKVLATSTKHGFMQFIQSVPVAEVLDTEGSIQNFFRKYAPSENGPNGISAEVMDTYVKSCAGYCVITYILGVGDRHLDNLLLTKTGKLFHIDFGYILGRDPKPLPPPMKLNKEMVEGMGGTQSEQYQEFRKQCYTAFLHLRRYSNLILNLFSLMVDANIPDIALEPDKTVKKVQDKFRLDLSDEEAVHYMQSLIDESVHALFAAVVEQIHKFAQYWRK
PIP5K1C, sequence (O60331 whole entry): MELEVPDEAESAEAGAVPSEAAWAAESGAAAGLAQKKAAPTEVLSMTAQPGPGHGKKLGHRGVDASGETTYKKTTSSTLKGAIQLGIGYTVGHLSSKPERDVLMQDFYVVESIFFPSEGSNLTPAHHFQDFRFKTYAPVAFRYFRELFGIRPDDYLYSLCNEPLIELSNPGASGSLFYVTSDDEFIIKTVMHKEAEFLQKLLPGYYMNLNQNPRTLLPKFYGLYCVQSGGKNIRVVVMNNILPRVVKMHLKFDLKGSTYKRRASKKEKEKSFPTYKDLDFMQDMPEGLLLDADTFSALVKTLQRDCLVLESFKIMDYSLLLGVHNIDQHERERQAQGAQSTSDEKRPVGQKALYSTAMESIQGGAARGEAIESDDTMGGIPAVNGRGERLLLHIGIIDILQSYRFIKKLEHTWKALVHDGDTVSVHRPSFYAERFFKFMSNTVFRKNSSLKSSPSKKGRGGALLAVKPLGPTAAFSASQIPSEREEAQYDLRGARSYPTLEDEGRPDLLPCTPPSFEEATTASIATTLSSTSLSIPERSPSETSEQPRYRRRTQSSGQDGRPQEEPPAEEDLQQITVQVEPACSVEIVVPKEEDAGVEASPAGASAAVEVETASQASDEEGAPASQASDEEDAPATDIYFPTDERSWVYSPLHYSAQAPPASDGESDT
CLK2, sequence (P49760 whole entry): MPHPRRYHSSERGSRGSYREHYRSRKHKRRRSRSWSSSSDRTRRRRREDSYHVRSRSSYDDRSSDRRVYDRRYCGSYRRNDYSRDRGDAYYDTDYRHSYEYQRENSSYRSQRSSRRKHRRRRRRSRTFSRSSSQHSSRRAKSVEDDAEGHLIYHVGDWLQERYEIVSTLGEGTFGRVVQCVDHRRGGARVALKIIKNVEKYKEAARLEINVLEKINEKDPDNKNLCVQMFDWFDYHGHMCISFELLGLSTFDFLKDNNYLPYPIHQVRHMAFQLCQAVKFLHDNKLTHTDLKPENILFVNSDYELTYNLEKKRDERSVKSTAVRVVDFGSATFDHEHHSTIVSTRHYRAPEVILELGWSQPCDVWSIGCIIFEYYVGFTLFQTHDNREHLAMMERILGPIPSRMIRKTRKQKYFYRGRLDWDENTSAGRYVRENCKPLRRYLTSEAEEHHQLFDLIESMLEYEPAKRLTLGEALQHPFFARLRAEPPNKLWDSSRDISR

**Q.** For C#CCOc1ccc(Nc2ncc(Cl)c(Nc3ccccc3NC(=O)C=C)n2)c(OC)c1 [Compound 6], which inhibition at 1 µM [1, 14] is on record?
**A.** The inhibition at 1 µM was 7%.

**Q.** What about the “Inhibition at 1 µM (%)” value [1] of the same compound?
**A.** The value was 11%.

**Q.** What about the “Inhibition at 1 µM (%)” value ([1]; listed as WEL028, 1 µM) of the same compound?
**A.** The value was 4%.

**Q.** And the inhibition at 1 µM [2, 14]?
**A.** The inhibition at 1 µM was 22%.

**Q.** And the “Inhibition at 1 µM (%)” value ([2]; PDGFRB (PDGFR beta), 1 µM, ZLYTE, ATP Km app, listed as WEL028, 1 µM)?
**A.** Its value is 23%.

**Q.** What about the inhibition at 1 µM ([2]; read-out: Inhibition at 1 µM (%), PDGFRB (PDGFR beta), 1 µM, ZLYTE, ATP Km app) of the same compound?
**A.** The inhibition at 1 µM was 21%.

**Q.** And the inhibition at 1 µM [3]?
**A.** The inhibition at 1 µM was 1%.

**Q.** And the “Inhibition at 1 µM (%)” value [4]?
**A.** The value was 2%.

**Q.** What about the “Inhibition at 1 µM (%)” value ([4]; listed as WEL028, 1 µM) of the same compound?
**A.** Its value is 0%.

**Q.** What about the inhibition at 1 µM [4, 14] of the same compound?
**A.** Its inhibition at 1 µM is 1%.

**Q.** And the “Inhibition at 1 µM (%)” value ([5]; PIP5K1C, Adapta, ATP 10, listed as WEL028, 1 µM)?
**A.** Its value is 1%.

**Q.** What about the inhibition at 1 µM ([5]; read-out: Inhibition at 1 µM (%), PIP5K1C, Adapta, ATP 10) of the same compound?
**A.** Its inhibition at 1 µM is 2%.

**Q.** What about the inhibition at 1 µM [6, 14] of the same compound?
**A.** The inhibition at 1 µM was 3%.

**Q.** And the inhibition at 1 µM ([6]; read-out: Inhibition at 1 µM (%), DDR2, 1 µM, LanthaScreen Binding)?
**A.** The inhibition at 1 µM was 2%.

**Q.** What about the inhibition at 1 µM [7] of the same compound?
**A.** Its inhibition at 1 µM is -10%.

**Q.** What about the “Inhibition (%)” value ([8]; 1 μM WEL028, 1 h preincubation) of the same compound?
**A.** The value was 0%.

**Q.** What about the “Inhibition at 1 µM (%)” value ([8]; IRAK4, 1 µM, ZLYTE, ATP Km app, listed as WEL028, 1 µM) of the same compound?
**A.** Its value is -3% and 3%.

**Q.** And the “Inhibition at 1 µM (%)” value [9]?
**A.** The value was 2%.

**Q.** And the “Inhibition at 1 µM (%)” value ([9]; listed as WEL028, 1 µM)?
**A.** Its value is -4%.

**Q.** What about the inhibition at 1 µM [9, 14] of the same compound?
**A.** Its inhibition at 1 µM is -1%.

**Q.** And the “Inhibition (%)” value ([10]; 1 μM WEL028, 1 h preincubation)?
**A.** Its value is 5%.

**Q.** What about the “Inhibition at 1 µM (%)” value ([10]; CDK2/cyclin A1, 1 µM, LanthaScreen Binding, listed as WEL028, 1 µM) of the same compound?
**A.** Its value is 7%.

**Q.** And the inhibition at 1 µM ([10]; read-out: Inhibition at 1 µM (%), CDK2/cyclin A1, 1 µM, LanthaScreen Binding)?
**A.** Its inhibition at 1 µM is 4%.

**Q.** And the inhibition at 1 µM [11, 14]?
**A.** Its inhibition at 1 µM is 11%.

**Q.** What about the “Inhibition at 1 µM (%)” value ([11]; PIK3C3 (hVPS34), 1 µM, Adapta, ATP Km app, listed as WEL028, 1 µM) of the same compound?
**A.** The value was 12%.

**Q.** And the inhibition at 1 µM ([11]; read-out: Inhibition at 1 µM (%), PIK3C3 (hVPS34), 1 µM, Adapta, ATP Km app)?
**A.** Its inhibition at 1 µM is 11%.

**Q.** And the inhibition at 1 µM [12, 14]?
**A.** Its inhibition at 1 µM is 1%.

**Q.** What about the “Inhibition at 1 µM (%)” value [12] of the same compound?
**A.** The value was 2%.

**Q.** And the “Inhibition at 1 µM (%)” value ([12]; listed as WEL028, 1 µM)?
**A.** The value was 0%.

**Q.** And the inhibition at 1 µM [13]?
**A.** Its inhibition at 1 µM is 0%.
